Tested on: TNF-α release induced by LPS in human peripheral blood mononuclear cells
Assay: Test 2: Inhibition of TNF-α release induced by LPS in human peripheral blood mononuclear cells
Format: cell-based
Details: Homo sapiens, PBMC, test product at 0.1 μM, LPS 400 ng/mL, 19 h, TNF-α in supernatant by ELISA
Procedure: Test 2: Inhibition of TNF-α Release Induced by LPS in Human Peripheral Blood Mononuclear Cells
To obtain the mononuclear cells: heparinized venous blood, obtained from healthy volunteers, is diluted with an equal volume of saline phosphate buffer without calcium or magnesium. Aliquots of 30 mL of the mixture are transferred to 50 mL centrifuge tubes containing 15 mL of Ficoll-Hypaque (1.077 g/mL). The tubes are centrifuged at 1200×g for 20 min at room temperature without braking. Approximately two-thirds of the band of platelets lying above the mononuclear cells is removed with a pipette. The mononuclear cells are carefully transferred to a 50 mL tube, washed twice with saline phosphate buffer, centrifuged at 300×g for 10 min at room temperature and resuspended in RPMI supplemented with 1% inactivated fetal bovine serum at a cell density of 2×10^6 cells/mL.
Inhibition of TNF-α release: 100 μL of mononuclear cells (2×10^6 cells/mL) are incubated on 96-well plates with 50 μL of the test product (final concentration, 0.001-10 μM) and 50 μL LPS (E. coli 055B5, Sigma) at a final concentration of 400 ng/mL for 19 h at 37° C. in an atmosphere with CO2 at 5%. The amount of TNF-α released in the supernatant is quantified using a commercial ELISA kit (Biosource International).

Structure (SMILES) | inhibition at 0.1 µM
COCCOCCn1cc2c(-c3ccc(F)cc3)c(-c3ccncc3)c(-c3ccc(F)cc3)nc2n1 [Example 82, 4,6-Bis(4-fluorophenyl)-2-[2-(2-methoxyethoxy)ethyl]-5-(4-pyridyl)pyrazolo[3,4-b]pyridine] | 59.9%
OCCCn1cc2c(-c3ccccc3)c(-c3ccncc3)c(-c3ccccc3)nc2n1 [Example 137, 3-[4,6-Diphenyl-5-(4-pyridyl)pyrazolo[3,4-b]pyridin-2-yl]propan-1-ol] | 61.4%
Cc1n[nH]c2nc(-c3ccc(F)cc3)c(-c3ccnc(N[C@@H](C)c4ccccc4)n3)cc12 [Example 279, (1S)-N-(1-Phenylethyl)-[4-[6-(4-fluorophenyl)-3-methyl-1H-pyrazolo[3,4-b]pyridin-5-yl]pyrimidin-2-yl]amine] | 100%
Cn1cc2c(-c3ccco3)c(-c3ccncc3)c(-c3ccc(F)cc3)nc2n1 [Example 183, 6-(4-Fluorophenyl)-4-(2-furyl)-2-methyl-5-(4-pyridyl)pyrazolo[3,4-b]pyridine] | 66.7%
C[S+]([O-])c1ccc(-n2cc3c(-c4ccc(F)cc4)c(-c4ccncc4)c(-c4ccc(F)cc4)nc3n2)cc1 (centres unmarked) [Example 56, 4,6-Bis(4-fluorophenyl)-2-(4-methylsulfinylphenyl)-5-(4-pyridyl)pyrazolo[3,4-b]pyridine] | 58.7%
CCNc1nccc(-c2cc3cn[nH]c3nc2-c2cccc(C(F)(F)F)c2)n1 [Example 289, N-Ethyl-[4-[6-(3-trifluoromethyl-phenyl)-1H-pyrazolo[3,4-b]pyridin-5-yl]pyrimidin-2-yl]amine] | 51.3%
Fc1ccc(-c2nc3nn(CCN4CCOCC4)cc3c(-c3ccc(F)cc3)c2-c2ccncc2)cc1 [Example 30, 4,6-Bis(4-fluorophenyl)-2-[2-(morpholin-4-yl)ethyl]-5-(4-pyridyl)pyrazolo[3,4-b]pyridine] | 83.6%
C[S+]([O-])c1ccc(Cn2cc3c(-c4ccc(F)cc4)c(-c4ccncc4)c(-c4ccc(F)cc4)nc3n2)cc1 (centres unmarked) [Example 59, 4,6-Bis(4-fluorophenyl)-2-(4-methylsulfinylbenzyl)-5-(4-pyridyl)pyrazolo[3,4-b]pyridine] | 60%
CC(=O)N1CCN(CCn2cc3c(-c4ccc(F)cc4)c(-c4ccncc4)c(-c4ccc(F)cc4)nc3n2)CC1 [Example 136, 1-[4-[2-[4,6-Bis(4-fluorophenyl)-5-(4-pyridyl)pyrazolo[3,4-b]pyridin-2-yl]ethyl]piperazin-1-yl]ethanone] | 67%
Fc1ccc(-c2nc3[nH]ncc3c(-c3ccc(F)cc3)c2-c2ccncc2)cc1 [Example 1, 4,6-Bis(4-fluorophenyl)-5-(4-pyridyl)-1H-pyrazolo[3,4-b]pyridine] | 57.5%
Cn1cc2c(-c3ccccc3)c(-c3ccncc3)c(-c3ccccc3)nc2n1 [Example 22, 2-Methyl-4,6-diphenyl-5-(4-pyridyl)pyrazolo[3,4-b]pyridine] | 56.5%
CN(C)C(=O)Cn1cc2c(-c3ccc(F)cc3)c(-c3ccncc3)c(-c3ccc(F)cc3)nc2n1 [Example 80, 2-[4,6-Bis(4-fluorophenyl)-5-(4-pyridyl)pyrazolo[3,4-b]pyridin-2-yl]-N,N-dimethylacetamide] | 69.3%
Cn1cc2c(-c3ccc(F)cc3)c(-c3ccncc3)c(-c3ccc(F)cc3)nc2n1 [Example 8, 4,6-Bis(4-fluorophenyl)-2-methyl-5-(4-pyridyl)pyrazolo[3,4-b]pyridine] | 66.3%
C[C@H](Nc1nccc(-c2cc3cn[nH]c3nc2-c2cccc(C(F)(F)F)c2)n1)c1ccccc1 [Example 128, (1S)-N-(1-Phenylethyl)-[4-[6-[3-(trifluoromethyl)phenyl]-1H-pyrazolo[3,4-b]pyridin-5-yl]pyrimidin-2-yl]amine] | 82%
OC1CCN(CCn2cc3c(-c4ccc(F)cc4)c(-c4ccncc4)c(-c4ccc(F)cc4)nc3n2)CC1 [Example 106, 1-[2-[4,6-Bis(4-fluorophenyl)-5-(4-pyridyl)pyrazolo[3,4-b]pyridin-2-yl]ethyl]piperidin-4-ol] | 69.3%
CC(=O)NCCCn1cc2c(-c3ccc(F)cc3)c(-c3ccncc3)c(-c3ccc(F)cc3)nc2n1 [Example 240, N-[3-[4,6-Bis(4-fluorophenyl)-5-(4-pyridyl)pyrazolo[3,4-b]pyridin-2-yl]propyl]acetamide] | 58.4%
Fc1ccc(-c2nc3nn(C4CCNCC4)cc3cc2-c2ccncc2)cc1 [Example 121, 6-(4-Fluorophenyl)-2-(4-piperidyl)-5-(4-pyridyl)pyrazolo[3,4-b]pyridine] | 52.1%

— patent US7468376B2, “Pyrazolopyridine derivates” (Palau Pharma, S.A., priority 2003, dated 2008)
